# According to US8912198B2, “Compounds useful as inhibitors of ATR kinase” (Vertex Pharmaceuticals Incorporated, priority 2012, dated 2014):
# Assays:
# [1] = test system: HCT116 colorectal cancer cells; assay: Single agent HCT116 activity, 96 h cell viability (MTS) assay; format: cell-based; details: Homo sapiens, HCT-116; 96 h MTS cell viability, compound alone; read-out: Single agent HT116 IC50
# Description: Compounds can be screened for single agent activity against HCT116 colorectal cancer cells using a 96 h cell viability (MTS) assay. HCT116 are plated at 470 cells per well in 96-well polystyrene plates (Costar 3596) in 150 μl of McCoy's 5A media (Sigma M8403) supplemented with 10% foetal bovine serum (JRH Biosciences 12003), Penicillin/Streptomycin solution diluted 1:100 (Sigma P7539), and 2 mM L-glumtamine (Sigma G7513), and allowed to adhere overnight at 37° C. in 5% CO2. Compounds are then added to the cell media in 2-fold serial dilutions from a top final concentration of 10 μM as a full matrix of concentrations in a final cell volume of 200 μl, and the cells are then incubated at 37° C. in 5% CO2. After 96 h, 40 μl of MTS reagent (Promega G358a) is added to each well and the cells are incubated for lh at 37° C. in 5% CO2. Finally, absorbance is measured at 490 nm using a SpectraMax Plus 384 reader (Molecular Devices) and IC50 values can be calculated.
# intracellular ATR = target: T1, intracellular ATR (Homo sapiens, UniProt Q13535); assay: Cellular ATR inhibition assay, H2AX phosphorylation in hydroxyurea treated HT29 cells; format: cell-based; details: 2 mM hydroxyurea, phosphorylated H2AX Ser139 positive nuclei
# T1 construct: endogenous in cells; host or cells: HT29
# T1 sequence (Q13535 whole entry): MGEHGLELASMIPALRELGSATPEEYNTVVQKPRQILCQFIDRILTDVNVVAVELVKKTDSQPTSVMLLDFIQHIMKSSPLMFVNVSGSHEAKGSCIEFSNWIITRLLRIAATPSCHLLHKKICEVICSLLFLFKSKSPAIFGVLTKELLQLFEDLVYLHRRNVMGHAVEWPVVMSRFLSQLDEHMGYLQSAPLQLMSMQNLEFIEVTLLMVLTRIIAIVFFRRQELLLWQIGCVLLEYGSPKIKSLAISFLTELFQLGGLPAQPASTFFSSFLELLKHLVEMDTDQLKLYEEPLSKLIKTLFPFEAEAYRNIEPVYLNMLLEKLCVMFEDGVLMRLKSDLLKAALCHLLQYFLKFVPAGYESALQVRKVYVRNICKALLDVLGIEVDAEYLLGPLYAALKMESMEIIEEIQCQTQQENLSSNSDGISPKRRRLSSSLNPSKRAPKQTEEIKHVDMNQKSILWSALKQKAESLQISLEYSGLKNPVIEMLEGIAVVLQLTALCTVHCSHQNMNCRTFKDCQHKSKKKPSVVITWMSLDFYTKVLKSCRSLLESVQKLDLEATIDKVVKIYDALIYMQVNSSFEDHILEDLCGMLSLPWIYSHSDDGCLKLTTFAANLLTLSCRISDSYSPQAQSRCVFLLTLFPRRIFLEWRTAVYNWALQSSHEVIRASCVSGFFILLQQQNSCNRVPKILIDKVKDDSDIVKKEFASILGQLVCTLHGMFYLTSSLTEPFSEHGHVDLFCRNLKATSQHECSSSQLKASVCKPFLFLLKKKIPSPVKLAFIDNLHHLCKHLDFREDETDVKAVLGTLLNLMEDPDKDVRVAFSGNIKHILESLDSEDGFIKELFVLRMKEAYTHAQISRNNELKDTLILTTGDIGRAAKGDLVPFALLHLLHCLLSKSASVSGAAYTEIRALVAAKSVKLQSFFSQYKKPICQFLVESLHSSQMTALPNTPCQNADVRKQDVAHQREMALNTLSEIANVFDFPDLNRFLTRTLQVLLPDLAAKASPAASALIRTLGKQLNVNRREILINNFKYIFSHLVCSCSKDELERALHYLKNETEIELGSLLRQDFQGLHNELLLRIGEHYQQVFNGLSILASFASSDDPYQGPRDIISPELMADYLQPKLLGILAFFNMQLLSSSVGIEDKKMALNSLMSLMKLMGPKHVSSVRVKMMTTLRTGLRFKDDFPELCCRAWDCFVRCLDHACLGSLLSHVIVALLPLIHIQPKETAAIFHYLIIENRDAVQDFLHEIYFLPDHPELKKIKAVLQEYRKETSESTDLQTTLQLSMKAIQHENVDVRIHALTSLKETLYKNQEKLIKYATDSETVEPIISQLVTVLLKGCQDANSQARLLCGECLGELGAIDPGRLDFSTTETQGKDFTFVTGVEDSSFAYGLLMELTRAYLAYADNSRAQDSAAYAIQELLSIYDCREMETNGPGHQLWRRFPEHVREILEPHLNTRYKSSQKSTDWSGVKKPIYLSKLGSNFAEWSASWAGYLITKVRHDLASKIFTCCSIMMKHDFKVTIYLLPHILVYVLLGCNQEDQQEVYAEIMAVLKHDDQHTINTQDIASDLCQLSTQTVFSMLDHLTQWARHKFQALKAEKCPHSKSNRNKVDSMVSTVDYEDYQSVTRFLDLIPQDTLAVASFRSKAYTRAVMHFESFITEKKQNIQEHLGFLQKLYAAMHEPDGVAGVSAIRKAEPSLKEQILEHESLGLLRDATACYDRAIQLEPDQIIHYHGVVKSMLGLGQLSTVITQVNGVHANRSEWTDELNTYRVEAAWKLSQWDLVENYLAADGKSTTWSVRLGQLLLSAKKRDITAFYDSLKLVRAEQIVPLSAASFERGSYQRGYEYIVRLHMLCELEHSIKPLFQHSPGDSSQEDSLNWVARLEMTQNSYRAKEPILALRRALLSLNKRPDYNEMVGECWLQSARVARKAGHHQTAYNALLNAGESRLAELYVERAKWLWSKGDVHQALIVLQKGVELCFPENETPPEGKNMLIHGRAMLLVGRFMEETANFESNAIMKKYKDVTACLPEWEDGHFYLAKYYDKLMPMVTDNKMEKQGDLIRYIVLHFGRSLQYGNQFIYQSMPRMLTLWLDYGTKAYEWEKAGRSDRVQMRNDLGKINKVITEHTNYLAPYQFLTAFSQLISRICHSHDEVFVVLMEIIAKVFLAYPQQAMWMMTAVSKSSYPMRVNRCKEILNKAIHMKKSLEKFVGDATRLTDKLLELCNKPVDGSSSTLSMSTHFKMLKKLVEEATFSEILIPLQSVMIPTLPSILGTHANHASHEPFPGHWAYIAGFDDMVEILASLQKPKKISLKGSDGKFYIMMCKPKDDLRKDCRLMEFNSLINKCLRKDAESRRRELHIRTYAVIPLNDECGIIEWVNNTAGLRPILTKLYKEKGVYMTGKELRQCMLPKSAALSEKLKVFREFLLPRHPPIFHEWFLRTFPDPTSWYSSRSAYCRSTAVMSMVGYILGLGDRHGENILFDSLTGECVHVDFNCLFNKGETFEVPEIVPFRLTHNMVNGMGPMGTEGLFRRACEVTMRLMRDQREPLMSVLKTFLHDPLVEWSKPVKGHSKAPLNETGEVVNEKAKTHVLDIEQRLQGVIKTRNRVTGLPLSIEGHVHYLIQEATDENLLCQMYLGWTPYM
# T1 sequence (Q8WXE1 whole entry partner): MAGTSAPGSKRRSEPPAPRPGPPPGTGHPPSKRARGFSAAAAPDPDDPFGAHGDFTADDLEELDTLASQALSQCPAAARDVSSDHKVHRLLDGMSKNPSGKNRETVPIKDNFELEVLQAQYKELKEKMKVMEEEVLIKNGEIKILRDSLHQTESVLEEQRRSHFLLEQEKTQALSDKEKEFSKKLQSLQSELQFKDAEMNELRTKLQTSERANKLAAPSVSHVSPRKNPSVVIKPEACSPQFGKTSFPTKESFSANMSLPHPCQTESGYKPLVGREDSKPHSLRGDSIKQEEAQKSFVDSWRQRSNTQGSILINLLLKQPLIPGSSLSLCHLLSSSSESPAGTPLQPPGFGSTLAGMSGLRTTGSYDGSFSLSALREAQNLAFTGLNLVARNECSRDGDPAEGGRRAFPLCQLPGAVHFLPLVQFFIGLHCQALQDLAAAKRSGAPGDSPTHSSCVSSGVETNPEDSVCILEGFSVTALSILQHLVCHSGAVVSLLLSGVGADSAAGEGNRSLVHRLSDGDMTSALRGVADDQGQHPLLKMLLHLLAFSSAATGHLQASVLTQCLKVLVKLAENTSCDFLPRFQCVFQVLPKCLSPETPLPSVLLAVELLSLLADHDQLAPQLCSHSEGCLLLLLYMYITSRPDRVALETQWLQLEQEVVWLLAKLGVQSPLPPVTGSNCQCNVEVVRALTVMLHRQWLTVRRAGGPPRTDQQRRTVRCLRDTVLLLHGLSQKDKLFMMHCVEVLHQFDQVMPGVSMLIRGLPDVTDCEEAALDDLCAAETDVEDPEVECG
# Description: Compounds can be screened for their ability to inhibit intracellular ATR using an immunofluorescence microscopy assay to detect phosphorylation of the ATR substrate histone H2AX in hydroxyurea treated cells. HT29 cells are plated at 14,000 cells per well in 96-well black imaging plates (BD 353219) in McCoy's 5A media (Sigma M8403) supplemented with 10% foetal bovine serum (JRH Biosciences 12003), Penicillin/Streptomycin solution diluted 1:100 (Sigma P7539), and 2 mM L-glumtamine (Sigma G7513), and allowed to adhere overnight at 37° C. in 5% CO2. Compounds are then added to the cell media from a final concentration of 25 μM in 3-fold serial dilutions and the cells are incubated at 37° C. in 5% CO2. After 15 min, hydroxyurea (Sigma H8627) is added to a final concentration of 2 mM.
# After 45 min of treatment with hydroxyurea, the cells are washed in PBS, fixed for 10 min in 4% formaldehyde diluted in PBS (Polysciences Inc 18814), washed in 0.2% Tween-20 in PBS (wash buffer), and permeabilised for 10min in 0.5% Triton X-100 in PBS, all at room temperature. The cells are then washed once in wash buffer and blocked for 30 min at room temperature in 10% goat serum (Sigma G9023) diluted in wash buffer (block buffer). To detect H2AX phosphorylation levels, the cells are then incubated for 1 h at room temperature in primary antibody (mouse monoclonal anti-phosphorylated histone H2AX Ser139 antibody; Upstate 05-636) diluted 1:250 in block buffer. The cells are then washed five times in wash buffer before incubation for lh at room temperature in the dark in a mixture of secondary antibody (goat anti-mouse Alexa Fluor 488 conjugated antibody; Invitrogen A11029) and Hoechst stain (Invitrogen H3570); diluted 1:500 and 1:5000, respectively, in wash buffer. The cells are then washed five times in wash buffer and finally 100 ul PBS is added to each well before imaging.
# Cells are imaged for Alexa Fluor 488 and Hoechst intensity using the BD Pathway 855 Bioimager and Attovision software (BD Biosciences, Version 1.6/855) to quantify phosphorylated H2AX Ser139 and DNA staining, respectively. The percentage of phosphorylated H2AX-positive nuclei in a montage of 9 images at 20× magnification is then calculated for each well using BD Image Data Explorer software (BD Biosciences Version 2.2.15). Phosphorylated H2AX-positive nuclei are defined as Hoechst-positive regions of interest containing Alexa Fluor 488 intensity at 1.75-fold the average Alexa Fluor 488 intensity in cells not treated with hydroxyurea. The percentage of H2AX positive nuclei is finally plotted against concentration for each compound and IC50s for intracellular ATR inhibition are determined using Prism software (GraphPad Prism version 3.0cx for Macintosh, GraphPad Software, San Diego Calif., USA).
# full-length ATR = target: T2, full-length ATR (Homo sapiens, UniProt Q13535); assay: ATR inhibition assay, radioactive-phosphate incorporation; format: biochemical; details: Ki(app); 5 nM full-length ATR, 10 μM ATP, 800 μM target peptide, 25° C.
# T2 construct: Assays were carried out at 25° C. in the presence of 5 nM full-length ATR
# T2 sequence (Q13535 whole entry): as the sequence (Q13535 whole entry) above
# Description: Compounds were screened for their ability to inhibit ATR kinase using a radioactive-phosphate incorporation assay. Assays were carried out in a mixture of 50 mM Tris/HCl (pH 7.5), 10 mM MgCl2 and 1 mM DTT. Final substrate concentrations were 10 μM [γ-33P]ATP (3 mCi 33P ATP/mmol ATP, Perkin Elmer) and 800 μM target peptide (ASELPASQPQPFSAKKK (SEQ. ID NO: 1)).
# Assays were carried out at 25° C. in the presence of 5 nM full-length ATR. An assay stock buffer solution was prepared containing all of the reagents listed above, with the exception of ATP and the test compound of interest. 13.5 μL of the stock solution was placed in a 96 well plate followed by addition of 2 μL of DMSO stock containing serial dilutions of the test compound (typically starting from a final concentration of 15 μM 3-fold serial dilutions) in duplicate (final DMSO concentration 7%). The plate was pre-incubated for 10 minutes at 25° C. and the reaction initiated by addition of 15 μL [γ-33P]ATP (final concentration 10 μM).
# The reaction was stopped after […] by the addition of 30 μL 0.1M phosphoric acid containing 2 mM ATP. A multiscreen phosphocellulose filter 96-well plate (Millipore, Cat no. MAPHN0B50) was pretreated with 100 μL 0.2M phosphoric acid prior to the addition of 45 μL of the stopped assay mixture. The plate was washed with 5×200 μL 0.2M phosphoric acid. After drying, 100 μL Optiphase ‘SuperMix’ liquid scintillation cocktail (Perkin Elmer) was added to the well prior to scintillation counting (1450 Microbeta Liquid Scintillation Counter, Wallac).
# After removing mean background values for all of the data points, Ki(app) data were calculated from non-linear regression analysis of the initial rate data using the Prism software package (GraphPad Prism version 3.0cx for Macintosh, GraphPad Software, San Diego, Calif., USA).
# [2] = test system: HCT116 colorectal cancer cells; assay: Cisplatin sensitization assay, 96 h cell viability (MTS); format: cell-based; details: concentration of compound required to reduce the IC50 of Cisplatin alone by at least 3-fold; HCT116, 96 h MTS
# Description: Compounds can be screened for their ability to sensitize HCT116 colorectal cancer cells to Cisplatin using a 96 h cell viability (MTS) assay. […] Compounds and Cisplatin are then both added simultaneously to the cell media in 2-fold serial dilutions from a top final concentration of 10 μM as a full matrix of concentrations in a final cell volume of 200 μl and the cells are then incubated at 37° C. in 5% CO2. After 96 h, 40 μl of MTS reagent (Promega G358a) is added to each well and the cells are incubated for lh at 37° C. in 5% CO2. Finally, absorbance is measured at 490 nm using a SpectraMax Plus 384 reader (Molecular Devices) and the concentration of compound required to reduce the IC50 of Cisplatin alone by at least 3-fold (to 1 decimal place) can be reported.
SMILES,IC50 [1] [nM],IC50 (intracellular ATR) [nM],Ki (full-length ATR) [nM],Cisplatin sensitization [2] [nM]
"CC(C)S(=O)(=O)c1ccc(-c2cnc(N)c(-c3cc(-c4ccc(NCC5CCCCN5)cc4)no3)n2)cc1 (stereo not drawn) [Compound I-1, 5-(4-isopropylsulfonylphenyl)-3-[3-[4-(2-piperidylmethylamino)phenyl]isoxazol-5-yl]pyrazin-2-amine]",210,62,0.635,156
"CC(C)S(=O)(=O)c1ccc(-c2cnc(N)c(-c3cc(-c4ccc(NCC5CCN5)cc4)no3)n2)cc1 (stereo not drawn) [Compound I-2, 3-[3-[4-(azetidin-2-ylmethylamino)phenyl]isoxazol-5-yl]-5-(4-isopropylsulfonylphenyl)pyrazin-2-amine]",140,40,0.6,78
"CC(C)S(=O)(=O)c1ccc(-c2cnc(N)c(-c3cc(-c4ccc(NC[C@@H]5CCCN5)cc4)no3)n2)cc1 [Compound I-3, (S)-5-(4-(isopropylsulfonyl)phenyl)-3-(3-(4-((pyrrolidin-2-ylmethyl)amino)phenyl)isoxazol-5-yl)pyrazin-2-amine]",83,14,0.49,20
"CC(C)S(=O)(=O)c1ccc(-c2cnc(N)c(-c3cc(-c4ccc(NC[C@H]5CCCN5)cc4)no3)n2)cc1 [Compound I-4, (R)-5-(4-(isopropylsulfonyl)phenyl)-3-(3-(4-((pyrrolidin-2-ylmethyl)amino)phenyl)isoxazol-5-yl)pyrazin-2-amine]",52,13,0.35,39
"CC(C)S(=O)(=O)c1ccc(-c2cnc(N)c(-c3cc(-c4ccc(NCC5CCCN5)cc4)no3)n2)cc1 (stereo not drawn) [Compound I-5, 5-(4-isopropylsulfonylphenyl)-3-[3-[4-(pyrrolidin-2-ylmethylamino)phenyl]isoxazol-5-yl]pyrazin-2-amine]",26,< 10,< 0.1,20
"CC(C)S(=O)(=O)c1ccc(-c2cnc(N)c(-c3cc(-c4ccc(NCCN(C)C)cc4)no3)n2)cc1 [Compound I-6, N-(4-(5-(3-amino-6-(4-(isopropylsulfonyl)phenyl)pyrazin-2-yl)isoxazol-3-yl)phenyl)-N,N-dimethylethane-1,2-diamine]",720,260,0.405,78
